Experimental data taken from paper PMC3439832 (Journal of agricultural and food chemistry, 2011).
Converted amounts (≈) assume the structure as drawn. “And” between values parts separate entries of the source, which are not always exact repeats. Equal values may be shown once. Each block holds one molecule with its values, some of them ahead of it.

Key:
[1] = test system: anti-p,p′-DDE antibody (mouse polyclonal antibody, sera); assay: indirect competitive ELISA; format: binding; details: for % cross-reactivity: (IC50 p,p′-DDE/IC50 chemicals) × 100
human tissues = details: in human tissues; cited from earlier work
[2] = sera of mouse P3 at day 80, before the ELISA was optimized

SMILES: OC(c1ccc(Cl)cc1)c1ccc(Cl)cc1 [DCBH]
% cross-reactivity ([1]; pooled mouse sera): 9.25%
IC50 ([1]; pooled mouse sera, ic-ELISA): 0.2433 µg/mL (≈ 0.961 µM)

SMILES: OCC(c1ccc(Cl)cc1)c1ccc(Cl)cc1 [DDOH, 2,2′-bis(4-chlorophenyl)ethanol]
% cross-reactivity ([1]; pooled mouse sera): 2.87%
IC50 ([1]; pooled mouse sera, ic-ELISA): 0.785 µg/mL (≈ 2.94 µM)

SMILES: OC(c1ccc(Cl)cc1)(c1ccc(Cl)cc1)C(Cl)(Cl)Cl [dicofol]
IC50 ([1]; pooled mouse sera, ic-ELISA): >22.5 µg/mL

IC50 ([1]; pooled mouse sera, ic-ELISA): 0.45 µg/mL (≈ 1.41 µM)
SMILES: Clc1ccc(C(c2ccccc2Cl)C(Cl)Cl)cc1 (stereo not shown) [o,p′-DDD]
% cross-reactivity ([1]; pooled mouse sera): 5.00%

SMILES: ClC(Cl)=C(c1ccc(Cl)cc1)c1ccccc1Cl [o,p′-DDE]
% cross-reactivity ([1]; pooled mouse sera): 0.64%
IC50 ([1]; pooled mouse sera, ic-ELISA): 3.5 µg/mL (≈ 11 µM)

SMILES: Clc1ccc(C(c2ccccc2Cl)C(Cl)(Cl)Cl)cc1 (stereo not shown) [o,p′-DDT]
IC50 ([1]; pooled mouse sera, ic-ELISA): >20 µg/mL

SMILES: O=C(c1ccc(Cl)cc1)c1ccc(Cl)cc1 [p,p′-DBP]
% cross-reactivity ([1]; pooled mouse sera): 0.27%
IC50 ([1]; pooled mouse sera, ic-ELISA): 8.357 µg/mL (≈ 33.3 µM)

IC50 ([1]; pooled mouse sera, ic-ELISA): 8.025 µg/mL (≈ 28.5 µM)
SMILES: O=C(O)C(c1ccc(Cl)cc1)c1ccc(Cl)cc1 [p,p′-DDA]
% cross-reactivity ([1]; pooled mouse sera): 0.28%

SMILES: Clc1ccc(C(c2ccc(Cl)cc2)C(Cl)Cl)cc1 [p,p′-DDD]
% cross-reactivity ([1]; pooled mouse sera): 112.5%
IC50 ([1]; pooled mouse sera, ic-ELISA): 0.02 µg/mL (≈ 0.0625 µM)

SMILES: ClC(Cl)=C(c1ccc(Cl)cc1)c1ccc(Cl)cc1 [p,p′-DDE, 1,1-Dichloro-2,2-bis(p-chlorophenyl) ethylene]
IC15 ([1]; developed ic-ELISA system): 0.0096 ± 0.0244 µg/mL and 0.0096 µg/mL
IC50 ([1]; g-DDOH-OVA as coating antigen): 0.69 µg/mL (≈ 2.17 µM)
% cross-reactivity ([1]; pooled mouse sera): 100%
IC50 ([1]; pooled mouse sera, ic-ELISA): 0.0225 µg/mL (≈ 0.0707 µM)
IC50 ([1]; s-DCBH-OVA as coating antigen): 0.06 µg/mL (≈ 0.189 µM)
IC50 [1, 2]: ~0.08 µg/mL (≈ 0.252 µM)
half-life (human tissues): 7–11 years

IC50 ([1]; pooled mouse sera, ic-ELISA): 0.0377 µg/mL (≈ 0.159 µM)
SMILES: Clc1ccc(Cc2ccc(Cl)cc2)cc1 [p,p′-DDM]
% cross-reactivity ([1]; pooled mouse sera): 59.7%

SMILES: Clc1ccc(C(c2ccc(Cl)cc2)C(Cl)(Cl)Cl)cc1 [p,p′-DDT, 2,2-bis(p-chlorophenyl)-1,1,1-trichloroethane]
% cross-reactivity ([1]; pooled mouse sera): 6.62%
IC50 ([1]; pooled mouse sera, ic-ELISA): 0.34 µg/mL (≈ 0.959 µM)
IC50 [1, 2]: about 2.85 μg/mL
